Converted amounts (≈) assume the structure as drawn. Like-named read-outs stand apart in the source and are kept apart here.

Assay [1] has as its system Pectobacterium atrosepticum. The experiment in a line: Antibacterial activity (MIC and MBC) in TY medium. In kind it is cell-based. Conditions: for MBC: plated on TY agar.
Assay [2] relates to Agrobacterium tumefaciens. The experiment in a line: Antibacterial activity (MIC and MBC) in TY medium. In kind it is cell-based. Conditions: for MBC: plated on TY agar.
A further assay deals with Dickeya dianthicola. In words: Antibacterial activity (MIC and MBC) in TY medium. The assay is classed as cell-based. As to conditions: for MBC: plated on TY agar.
The subject of assay [3] is Agrobacterium tumefaciens, Pectobacterium atrosepticum and Dickeya dianthicola bacteria. The experiment in a line: Antibacterial activity, summary statements over the bacteria tested. In kind it is cell-based. Conditions: for inhibition of the growth of the bacteria (in words): after 36 h of incubation at 30° C., compared with 4-NPO.
For another assay, the system named is Phytophthora infestans. The experiment in a line: microbe, parasite or virus in culture. The assay is classed as cell-based. As to conditions: after 6 days; 20 mg in 200 μl distilled water, spots of 10 μl.
The next assay has as its system Fusarium sambucinum. Conditions: for Inhibition of the growth of the Fusarium sambucinum fungi: compound in methanol, more than 10 days at 20° C.; for Inhibition of the growth of the fungi: compound in DMSO, 10 days at 20° C.
The test system of the next assay is Fusarium roseum. As to conditions: for Inhibition of the growth of the Fusarium roseum fungi: compound in methanol, more than 10 days at 20° C.; for Inhibition of the growth of the fungi: compound in DMSO, 10 days at 20° C.
[4] abbreviates: 36 h of culture at 30° C., TY medium.

Experimental for Fusarium roseum: (§1) The antifungal activity of the N-alkyl-glycosyl(di)amine derivatives of formula (I) and of the N-alkyl-glycamine derivatives of formula (III) synthesized according to the process of the invention was evaluated on two fungi: Fusarium roseum and Fusarium sambucinum.
(§2) For this, 500 μl of solution comprising the test derivative, dissolved in DMSO or methanol, are mixed with 19.5 ml of malt agar medium (Sigma aldrich) allowing the growth of these two Fusarium isolates. The test derivative is prepared in 2 ml of methanol, then mixed with 18 ml of malt agar medium (Sigma aldrich). A spot of 10 μl of culture of each Fusarium is then deposited at the center of each Petri dish. After 10 days of incubation at 20° C., the growth diameters are measured.
(§3) The range of concentrations of N-alkyl-glycosyl(di)amine derivatives of formula (I) tested ranges from 0.1 to 25 μmol/ml.
(§4) The Fusarium growth on media containing the various molecules is compared with that obtained only with DMSO or methanol.
(§5) The same antifungal evaluation protocol as the one previously described with the compound Ij was applied for other N-alkyl-glycosyl(di)amine derivatives of formula (I) and N-alkyl-glycamine derivatives of formula (III) at concentrations ranging from 1 to 20 μmol/ml.
(§6) 2 ml of solution comprising the test compound dissolved in methanol are mixed with 18 ml of agar malt medium (Sigma aldrich) allowing the growth of these two Fusarium isolates. A spot of 10 μl of culture of each Fusarium is then deposited at the center of each Petri dish. After more than 10 days of incubation at 20° C., the growth diameters are measured.
Experimental for Fusarium sambucinum: as §1, §2, §3, §4, §5, §6

Take `O=[N+]([O-])c1cc[n+]([O-])cc1` [4-NPO, 4-Nitropyridine-N-oxide, reference compound]: the MIC (in general, the lowest concentration that inhibits growth of the organism) in assay [1] (Pectobacterium atrosepticum, 36 h, 36 h of culture at 30° C., TY medium, read-out: MIC) amounted to 125 µg/mL (≈ 892 µM); in assay [1] (Pectobacterium atrosepticum, reference bacteriostatic molecule, read-out: MIC), 125 µg/mL (≈ 892 µM); in assay [2] (Agrobacterium tumefaciens, 36 h, 36 h of culture at 30° C., TY medium, read-out: MIC) it was 125 µg/mL (≈ 892 µM); in assay [2] (Agrobacterium tumefaciens, reference bacteriostatic molecule, read-out: MIC), 125 µg/mL (≈ 892 µM); with Dickeya dianthicola (Dickeya dianthicola, 36 h of culture at 30° C., TY medium, read-out: MIC) it was 16 µg/mL (≈ 114 µM); in the assay with Dickeya dianthicola (Dickeya dianthicola, reference bacteriostatic molecule, read-out: MIC) it was 16 µg/mL (≈ 114 µM). Besides, the MBC (in general, the smallest concentration meeting the test's criterion for killing) in the assay with Dickeya dianthicola (Dickeya dianthicola, 36 h of culture at 30° C., read-out: MBC) was 16 µg/mL (≈ 114 µM).

Regarding `CC1OC(NCCCCCNC2OC(C)[C@H](O)C(O)C2O)C(O)C(O)[C@H]1O` (some centres unmarked) [Ig], the MIC in assay [1] (setting [4]) and in assay [2] (setting [4]) was 125 µg/mL (≈ 317 µM) throughout. In addition, the minimum bactericidal concentration (MBC) was determined as 250 µg/mL (≈ 634 µM) in assay [1] (Pectobacterium atrosepticum, 36 h, 36 h of culture at 30° C., read-out: MBC) and 250 µg/mL (≈ 634 µM) in assay [2] (Agrobacterium tumefaciens, 36 h, 36 h of culture at 30° C., read-out: MBC). The “bactericidal activity (in words)” value in assay [3] is listed as “showed a bactericidal activity”. Also, the “inhibition of the growth of the bacteria (in words)” value (shortened to “inhibition … (in words)”) in assay [3] is on record as “inhibition of the growth of the bacteria was observed”.

On to `CC(O)C(O)C(O)C(O)CNCCCCCCCCCCCCN` (centres unmarked) [compound IIId], for which the results for the MIC (in assay [1] (setting [4]); in assay [2] (setting [4]); against Dickeya dianthicola (setting [4])) were 62.5 µg/mL (≈ 179 µM), 52.5 µg/mL (≈ 151 µM) and 16 µg/mL (≈ 45.9 µM), respectively. Moreover, the MBC in assay [1] (36 h of culture at 30° C.) is 62.5 µg/mL (≈ 179 µM); in assay [2] (36 h of culture at 30° C.), 250 µg/mL (≈ 717 µM); against Dickeya dianthicola (36 h of culture at 30° C.) it was 125 µg/mL (≈ 359 µM). Further, the “Average diameters of inhibition zone” value in the assay on Phytophthora infestans is 0 mm. Besides, the “bactericidal activity (in words)” value in assay [3] is given as “showed a bactericidal activity”. Moreover, the “inhibition … (in words)” value in assay [3] was “inhibition of the growth of the bacteria was observed”.

Take `CCCCNC1OC(C)[C@H](O)C(O)C1O` (some centres unmarked) [compound Ib]: the “Inhibition of the growth of the Fusarium sambucinum fungi” value in the assay with Fusarium sambucinum (1 μmol/ml) is on record as 0%; in the assay on Fusarium sambucinum (2.5 μmol/ml), 0%; with Fusarium sambucinum (5 μmol/ml), 4%; in the assay on Fusarium sambucinum (10 μmol/ml), 76%; in the assay with Fusarium sambucinum (20 μmol/ml) it was 90%. Besides, the “Inhibition of the growth of the Fusarium roseum fungi” value with Fusarium roseum (1 μmol/ml) is given as 0%; in the assay on Fusarium roseum (2.5 μmol/ml), 0%; in the assay with Fusarium roseum (5 μmol/ml), 0%; in the assay with Fusarium roseum (10 μmol/ml), 70%; in the assay on Fusarium roseum (20 μmol/ml) it was 88%.

Turning to `CCCCCNC1OC(C)[C@H](O)C(O)C1O` (some centres unmarked) [compound Ic], the MIC in assay [1] (setting [4]) was 62.5 µg/mL (≈ 268 µM); in assay [2] (setting [4]), 125 µg/mL (≈ 536 µM). The molecule further registered an MBC in assay [1] (36 h of culture at 30° C.) greater than 500 µg/mL. In addition, the “inhibition … (in words)” value in assay [3] is “inhibition of the growth of the bacteria was observed”. The “Inhibition of the growth of the Fusarium sambucinum fungi” value in the assay with Fusarium sambucinum (1 μmol/ml) was found to be 10%; in the assay on Fusarium sambucinum (2.5 μmol/ml), 33%; in the assay on Fusarium sambucinum (5 μmol/ml), 89%; in the assay with Fusarium sambucinum (10 μmol/ml) it was 90%; in the assay with Fusarium sambucinum (20 μmol/ml), 100%. In addition, the “Inhibition of the growth of the Fusarium roseum fungi” value with Fusarium roseum (1 μmol/ml) was 0%; in the assay on Fusarium roseum (2.5 μmol/ml), 18%; in the assay with Fusarium roseum (5 μmol/ml) it was 99%; in the assay on Fusarium roseum (10 μmol/ml), 99%; in the assay on Fusarium roseum (20 μmol/ml), 100%.

As to `CCCCCNC1OC(C)[C@H](O)C(O)C1O` (some centres unmarked) [compound Id], the MIC in assay [1] (setting [4]) and in assay [2] (setting [4]) was 62.5 µg/mL (≈ 268 µM) each time. Further, the MBC in assay [1] (36 h of culture at 30° C.) and in assay [2] (36 h of culture at 30° C.) was 250 µg/mL (≈ 1070 µM) in each case. Besides, in assay [3], the “bactericidal activity (in words)” value is given as “showed a bactericidal activity”. Further, the “inhibition … (in words)” value in assay [3] is reported as “inhibition of the growth of the bacteria was observed”.

For `CC1OC(NCCCCCNC2OC(C)[C@H](O)C(O)C2O)C(O)C(O)[C@H]1O` (some centres unmarked) [compound If], the MIC was 250 µg/mL (≈ 634 µM) in assay [1] (setting [4]) and greater than 500 µg/mL in assay [2] (setting [4]). Moreover, the “inhibition … (in words)” value in assay [3] was “inhibition of the growth of the bacteria was observed”.

Turning to `CC1OC(NCCCCCNC2OC(C)[C@H](O)C(O)C2O)C(O)C(O)[C@H]1O` (some centres unmarked) [compound Ih], the MIC in assay [1] (setting [4]) and in assay [2] (setting [4]) was 62.5 µg/mL (≈ 158 µM) throughout. The MBC in assay [1] (36 h of culture at 30° C.) amounted to 125 µg/mL (≈ 317 µM); in assay [2] (36 h of culture at 30° C.) it was 500 µg/mL (≈ 1270 µM). For the same molecule, the “bactericidal activity (in words)” value in assay [3] is given as “showed a bactericidal activity”. Also, the “inhibition … (in words)” value in assay [3] was “inhibition of the growth of the bacteria was observed”. Also, the “Inhibition of the growth of the Fusarium sambucinum fungi” value is 12% with Fusarium sambucinum (1 μmol/ml); 27% with Fusarium sambucinum (2.5 μmol/ml); 100% with Fusarium sambucinum (5 μmol/ml); 100% with Fusarium sambucinum (10 μmol/ml); 100% with Fusarium sambucinum (20 μmol/ml). For the same molecule, the “Inhibition of the growth of the Fusarium roseum fungi” value in the assay on Fusarium roseum (1 μmol/ml) is 0%; in the assay with Fusarium roseum (2.5 μmol/ml), 28%; in the assay on Fusarium roseum (5 μmol/ml), 90%; with Fusarium roseum (10 μmol/ml) it was 93%; in the assay on Fusarium roseum (20 μmol/ml), 93%.

On to `CC1OC(NCCCCCCCCCCCCN)C(O)C(O)C1O` (centres unmarked) [compound Ii], for which the results for the MIC in assay [1] (setting [4]) and in assay [2] (setting [4]) were 8 µg/mL (≈ 23.1 µM) and 16 µg/mL (≈ 46.2 µM), respectively. Besides, the results for the MBC in assay [1] (36 h of culture at 30° C.) and in assay [2] (36 h of culture at 30° C.) were 16 µg/mL (≈ 46.2 µM) and 32 µg/mL (≈ 92.3 µM), respectively. For the same molecule, the “bactericidal activity (in words)” value in assay [3] is reported as “showed a bactericidal activity”. The “Inhibition of the growth of the Fusarium sambucinum fungi” value in the assay with Fusarium sambucinum (1 μmol/ml) was 28%; in the assay with Fusarium sambucinum (2.5 μmol/ml), 60%; with Fusarium sambucinum (5 μmol/ml) it was 100%; in the assay on Fusarium sambucinum (10 μmol/ml), 100%; with Fusarium sambucinum (20 μmol/ml) it was 100%. Besides, the “Inhibition of the growth of the Fusarium roseum fungi” value amounted to 0% in the assay on Fusarium roseum (1 μmol/ml); 34% with Fusarium roseum (2.5 μmol/ml); 93% in the assay on Fusarium roseum (5 μmol/ml); 93% with Fusarium roseum (10 μmol/ml); 100% in the assay with Fusarium roseum (20 μmol/ml).

For the molecule `CCCCCCCCCCCCNC1OC(CO)C(O)C(O)C1O` (centres unmarked) [compound Ij], the MIC in assay [1] (setting [4]) is 16 µg/mL (≈ 46 µM); in assay [2] (setting [4]), 8 µg/mL (≈ 23 µM). For the same molecule, the “Average diameters of inhibition zone” value in the assay on Phytophthora infestans is recorded as 24 mm. This molecule also had an MBC in assay [2] (36 h of culture at 30° C.) of 16 µg/mL (≈ 46 µM). For the same molecule, the “bactericidal activity (in words)” value in assay [3] is on record as “showed a bactericidal activity”. The “inhibition … (in words)” value in assay [3] is listed as “inhibition of the growth of the bacteria was observed”. The “Inhibition of the growth of the fungi” value with Fusarium sambucinum (1 μmol/ml) turned out to be 50%; in the assay with Fusarium sambucinum (2.5 μmol/ml), 50%; in the assay with Fusarium sambucinum (5 μmol/ml) it was 100%; in the assay on Fusarium sambucinum (10 μmol/ml), 100%; with Fusarium sambucinum (20 μmol/ml), 100%; with Fusarium sambucinum (25 μmol/ml), 100%. Moreover, the “Inhibition of the growth of the fungi” value with Fusarium roseum (1 μmol/ml), in the assay on Fusarium roseum (2.5 μmol/ml), with Fusarium roseum (5 μmol/ml), with Fusarium roseum (10 μmol/ml), in the assay on Fusarium roseum (20 μmol/ml) and with Fusarium roseum (25 μmol/ml) was 100% in each case.

Take `CCCCCCCCCCCCNC1OC(CO)C(O)C(O)C1O` (centres unmarked) [compound Ik]: the figures for the MIC in assay [1] (setting [4]) and in assay [2] (setting [4]) were 16 µg/mL (≈ 46 µM) and 2 µg/mL (≈ 5.76 µM), respectively. This molecule displayed an MBC in assay [1] (36 h of culture at 30° C.) of 32 µg/mL (≈ 92.1 µM). In addition, in the assay on Phytophthora infestans, the “Average diameters of inhibition zone” value came to 24 mm. The “bactericidal activity (in words)” value in assay [3] is listed as “showed a bactericidal activity”. Also, the “inhibition … (in words)” value in assay [3] is reported as “inhibition of the growth of the bacteria was observed”. Further, the “Inhibition of the growth of the Fusarium sambucinum fungi” value in the assay with Fusarium sambucinum (1 μmol/ml), in the assay with Fusarium sambucinum (2.5 μmol/ml) and in the assay on Fusarium sambucinum (5 μmol/ml) was 96% throughout. In addition, the “Inhibition of the growth of the Fusarium roseum fungi” value in the assay on Fusarium roseum (1 μmol/ml), in the assay on Fusarium roseum (2.5 μmol/ml) and in the assay on Fusarium roseum (5 μmol/ml) was 96% each time.

The values above are taken from patent publication US9969762B2.
